{"source": "patent US20190134000A1", "about": "“COMPOUNDS TO PROMOTE NORMAL PROCESSING OF APP” (Buck Institute for Research on Aging, priority 2016, published 2019)", "key": {"[1]": {"molecular_target": "CYP3A4 (Homo sapiens, UniProt P08684)", "sequence (P08684 whole entry)": "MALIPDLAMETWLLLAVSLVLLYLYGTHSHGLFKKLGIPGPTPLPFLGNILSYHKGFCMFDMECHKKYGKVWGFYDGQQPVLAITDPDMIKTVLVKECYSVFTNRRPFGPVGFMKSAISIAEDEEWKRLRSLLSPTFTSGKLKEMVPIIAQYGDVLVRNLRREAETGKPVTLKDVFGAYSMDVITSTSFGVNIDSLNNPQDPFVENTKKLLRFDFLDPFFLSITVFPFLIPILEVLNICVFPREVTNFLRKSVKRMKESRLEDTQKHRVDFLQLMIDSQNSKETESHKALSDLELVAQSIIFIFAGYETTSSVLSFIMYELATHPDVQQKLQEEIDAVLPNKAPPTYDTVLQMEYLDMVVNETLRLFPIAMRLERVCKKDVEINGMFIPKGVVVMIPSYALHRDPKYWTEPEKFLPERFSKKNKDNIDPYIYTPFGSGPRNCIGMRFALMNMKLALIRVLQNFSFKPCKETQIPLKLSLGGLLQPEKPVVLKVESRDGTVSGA", "experiment": "CYP inhibition screen CYP3A4", "format": "in vitro ADME", "conditions": "for inhibition at 10 µM / inhibition at 30 µM: human"}, "[2]": {"experiment": "S9 stability, dog", "format": "in vitro ADME"}, "[3]": {"tested_on": "muscarinic acetylcholine receptors", "experiment": "Muscarinic receptor binding in panel", "conditions": "panel binding test"}, "[4]": {"molecular_target": "hERG receptor (Homo sapiens, UniProt Q12809)", "sequence (Q12809 whole entry)": "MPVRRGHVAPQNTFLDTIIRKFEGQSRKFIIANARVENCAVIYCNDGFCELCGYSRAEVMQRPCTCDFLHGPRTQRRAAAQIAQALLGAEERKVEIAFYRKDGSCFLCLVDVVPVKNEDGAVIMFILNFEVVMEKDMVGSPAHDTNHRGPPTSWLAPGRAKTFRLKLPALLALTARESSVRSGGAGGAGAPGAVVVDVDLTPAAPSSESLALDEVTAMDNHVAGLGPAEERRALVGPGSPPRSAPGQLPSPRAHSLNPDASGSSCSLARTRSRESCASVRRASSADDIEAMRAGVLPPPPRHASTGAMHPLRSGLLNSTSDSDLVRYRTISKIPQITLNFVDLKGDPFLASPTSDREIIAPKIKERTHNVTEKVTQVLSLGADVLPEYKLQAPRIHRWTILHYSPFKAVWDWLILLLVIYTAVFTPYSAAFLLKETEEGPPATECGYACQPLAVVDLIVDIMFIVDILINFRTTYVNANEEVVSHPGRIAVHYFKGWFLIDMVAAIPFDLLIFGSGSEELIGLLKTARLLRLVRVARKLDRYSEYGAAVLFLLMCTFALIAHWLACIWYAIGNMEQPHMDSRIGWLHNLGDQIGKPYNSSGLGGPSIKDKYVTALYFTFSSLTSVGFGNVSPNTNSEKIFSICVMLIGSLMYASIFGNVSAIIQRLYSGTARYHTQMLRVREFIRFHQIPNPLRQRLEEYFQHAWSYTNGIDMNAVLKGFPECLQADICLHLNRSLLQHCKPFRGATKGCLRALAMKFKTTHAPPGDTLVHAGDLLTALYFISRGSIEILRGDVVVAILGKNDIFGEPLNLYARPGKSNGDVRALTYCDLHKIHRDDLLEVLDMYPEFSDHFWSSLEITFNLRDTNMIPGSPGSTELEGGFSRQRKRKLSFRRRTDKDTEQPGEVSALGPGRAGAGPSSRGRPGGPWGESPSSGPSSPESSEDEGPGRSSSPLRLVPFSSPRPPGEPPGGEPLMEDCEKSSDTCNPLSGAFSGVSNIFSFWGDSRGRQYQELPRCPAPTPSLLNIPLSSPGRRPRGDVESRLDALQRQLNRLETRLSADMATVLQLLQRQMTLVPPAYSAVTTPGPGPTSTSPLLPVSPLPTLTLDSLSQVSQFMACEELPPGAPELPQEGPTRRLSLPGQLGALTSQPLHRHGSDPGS", "format": "binding"}, "[5]": {"molecular_target": "CYP2C19 (Homo sapiens, UniProt P33261)", "sequence (P33261 whole entry)": "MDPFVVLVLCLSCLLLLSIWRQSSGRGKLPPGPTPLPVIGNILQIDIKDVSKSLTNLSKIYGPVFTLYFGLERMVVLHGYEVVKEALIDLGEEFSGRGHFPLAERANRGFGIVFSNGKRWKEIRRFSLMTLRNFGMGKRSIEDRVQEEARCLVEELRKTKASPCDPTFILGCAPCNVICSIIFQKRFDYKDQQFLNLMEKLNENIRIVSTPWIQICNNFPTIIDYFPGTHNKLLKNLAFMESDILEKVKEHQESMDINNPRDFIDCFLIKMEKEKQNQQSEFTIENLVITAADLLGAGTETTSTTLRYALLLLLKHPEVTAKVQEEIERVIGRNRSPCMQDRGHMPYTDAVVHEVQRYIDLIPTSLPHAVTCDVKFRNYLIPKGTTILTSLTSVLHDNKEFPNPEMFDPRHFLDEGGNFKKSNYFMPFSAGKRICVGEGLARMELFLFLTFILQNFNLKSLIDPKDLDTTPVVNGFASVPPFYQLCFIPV", "experiment": "CYP inhibition screen CYP2C19", "format": "in vitro ADME"}, "[6]": {"experiment": "S9 stability, mouse", "format": "in vitro ADME"}, "[7]": {"experiment": "S9 stability, monkey", "format": "in vitro ADME"}, "[8]": {"experiment": "S9 stability, human", "format": "in vitro ADME"}, "[9]": {"tested_on": "sAPPα in SH-SY5Y cells", "experiment": "Primary screen, effect on sAPPα in SH-SY5Y cells (AlphaLISA)", "format": "cell-based, human", "conditions": "↑ increase", "source_text": "Compound C41 was initially identified by screening a library of compounds in a series of steps. First compounds were screened in a primary screen to determine the effect on sAPPα in SH-SYSY cells (see, e.g., FIG. 4). Compounds that elicited an increase in sAPPα of at least 10% were subjected to a secondary screen in CHO-7W cells for their effect on sAPPα and Aβ (see, e.g., FIG. 5)."}, "[10]": {"experiment": "in vitro", "protocol": "The second batch of C41 was tested for plasma protein binding, ADME-tox screening (microsomal intrinsic clearance), and ADME-tox screening (CYP inhibition screen). PK in rats was determined to determine a dose of non-GLP Pharm-Tox screening. Additionally, acute toxicity in rats (pre-subchronic toxicity) and non-GLP subchronic toxicity was determined."}, "[11]": {"experiment": "in vivo", "conditions": "rat", "protocol": "Top panel: Levels after oral delivery at 10 mk at 1, 8, and 24 hours; levels after oral delivery at 40 mk at 24 hours only. Bottom panel: IV delivery at 2.5 mk. Note brain levels in ng/g, plasma levels in ng/ml.\nFIG. 13 illustrates C41 pharmacokinetic parameters in rat.\nC41 pharmacokinetics were determined in a rat (see, FIG. 12, Table 9). […] Brain tissue was collected at 1, 8, and 24 hours. Plasma peak was 150 ng/ml and brain was 3251 ng/g. C41 peaked at 8 hours. […] Brain tissue was collected at 30 min, 6 hours, and 24 hours. Plasma peak was 564 ng/ml, at 1 minute and brain peak was 629 ng/g at 30 minutes. The 30 minute brain:plasma ratio was 8. Oral availability was determined to be about 100% (see, e.g. FIG. 13)."}, "[12]": {"molecular_target": "T1, 5-HT3 (Homo sapiens, UniProt P46098)", "T1 sequence (P46098 24-478)": "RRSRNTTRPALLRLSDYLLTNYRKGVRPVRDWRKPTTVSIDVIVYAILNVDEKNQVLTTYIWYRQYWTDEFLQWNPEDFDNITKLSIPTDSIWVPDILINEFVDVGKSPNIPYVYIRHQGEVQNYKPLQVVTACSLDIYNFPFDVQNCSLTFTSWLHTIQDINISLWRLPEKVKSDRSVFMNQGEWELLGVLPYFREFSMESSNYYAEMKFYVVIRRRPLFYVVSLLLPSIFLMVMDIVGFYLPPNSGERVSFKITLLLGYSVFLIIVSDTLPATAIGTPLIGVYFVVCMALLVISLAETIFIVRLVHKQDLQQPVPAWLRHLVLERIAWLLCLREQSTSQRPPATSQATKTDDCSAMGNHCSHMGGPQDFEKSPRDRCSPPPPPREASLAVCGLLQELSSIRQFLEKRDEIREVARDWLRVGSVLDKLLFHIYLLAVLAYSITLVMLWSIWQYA", "experiment": "Target binding 5-HT3"}, "[13]": {"molecular_target": "CYP2C9 (Homo sapiens, UniProt P11712)", "sequence (P11712 whole entry)": "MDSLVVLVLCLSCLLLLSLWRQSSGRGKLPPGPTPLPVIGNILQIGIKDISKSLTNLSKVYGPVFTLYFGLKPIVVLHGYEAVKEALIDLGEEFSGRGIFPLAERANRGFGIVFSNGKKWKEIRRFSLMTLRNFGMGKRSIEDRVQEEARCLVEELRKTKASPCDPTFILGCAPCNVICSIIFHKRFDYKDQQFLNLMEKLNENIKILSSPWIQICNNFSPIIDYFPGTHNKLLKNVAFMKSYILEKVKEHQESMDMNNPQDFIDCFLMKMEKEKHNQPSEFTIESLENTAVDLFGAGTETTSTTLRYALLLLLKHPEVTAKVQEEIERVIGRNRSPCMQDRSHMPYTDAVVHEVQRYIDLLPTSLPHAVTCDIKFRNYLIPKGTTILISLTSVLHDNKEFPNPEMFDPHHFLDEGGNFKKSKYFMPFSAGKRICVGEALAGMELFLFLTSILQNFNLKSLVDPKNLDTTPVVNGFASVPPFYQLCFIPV", "experiment": "CYP inhibition screen CYP2C9", "format": "in vitro ADME"}, "[14]": {"experiment": "physchem"}}, "note": "Entries after “also recorded” stand apart in the source; their conditions may differ. Where two headings read alike, the source gives them in different places."}
{"smiles": "CN1[C@@H]2CC[C@H]1C[C@@H](OC(=O)c1c[nH]c3cc(F)ccc13)C2", "note": "[Compound C41, (1R,3R,5S)-8-methyl-8-azabicyclo[3.2.1]octan-3-yl 6-fluoro-1H-indole-3-carboxylate]", "values": [{"measurement": "IC50", "setting": "[1]", "value": "> 30", "unit": "µM"}, {"measurement": "inhibition at 10 µM", "setting": "[1]; CYP3A4 midazolam inhibition", "value": 3.1, "unit": "%"}, {"measurement": "inhibition at 30 µM", "setting": "[1]; CYP3A4 midazolam inhibition", "value": 3.8, "unit": "%"}, {"measurement": "inhibition at 10 µM", "setting": "[1]; CYP3A4 testosterone inhibition", "value": 5.2, "unit": "%"}, {"measurement": "inhibition at 30 µM", "setting": "[1]; CYP3A4 testosterone inhibition", "value": 2.5, "unit": "%"}, {"measurement": "half-life", "setting": "[2]", "value": 0.668, "unit": "h"}, {"measurement": "binding to muscarinic acetylcholine receptors", "setting": "[3]", "value": "only weak binding; also recorded: profile. Some"}, {"measurement": "binding to hERG receptor", "setting": "[4]", "value": "no binding"}, {"measurement": "IC50", "setting": "[5]", "value": "> 30", "unit": "µM"}, {"measurement": "inhibition at 10 µM", "setting": "[5]; human", "value": 0, "unit": "%"}, {"measurement": "inhibition at 30 µM", "setting": "[5]; human", "value": 0, "unit": "%"}, {"measurement": "Metabolic Half-Life Mouse S9", "setting": "[6]", "value": ">1", "unit": "h"}, {"measurement": "half-life", "setting": "[6]", "value": "> 1", "unit": "h"}, {"measurement": "Metabolic Half-Life Monkey S9", "setting": "[7]", "value": ">1", "unit": "h"}, {"measurement": "half-life", "setting": "[7]", "value": "> 1", "unit": "h"}, {"measurement": "Metabolic Half-Life Human S9", "setting": "[8]", "value": ">1", "unit": "h"}, {"measurement": "half-life", "setting": "[8]", "value": "> 1", "unit": "h"}, {"measurement": "Primary Screen (SH-SY5Y) sAPPα", "setting": "[9]", "value": "↑~20%"}, {"measurement": "microsomal CLint at 1 μM", "setting": "[10]; dog, microsomes, NADPH-Dependent CLint", "value": 45.7, "unit": "µL/min/mg"}, {"measurement": "half-life at 1 μM", "setting": "[10]; dog, microsomes, NADPH-Dependent T1/2", "value": 0.843, "unit": "h"}, {"measurement": "microsomal CLint at 1 μM", "setting": "[10]; dog, microsomes, NADPH-Free CLint", "value": "< 9.6", "unit": "µL/min/mg"}, {"measurement": "half-life at 1 μM", "setting": "[10]; dog, microsomes, NADPH-Free T1/2", "value": "> 4", "unit": "h"}, {"measurement": "Plasma protein binding", "setting": "[10]; human", "value": "74.3 (human)"}, {"measurement": "recovery", "setting": "[10]; human", "value": 115, "unit": "%"}, {"measurement": "half-life", "setting": "[10]; human, microsomes", "value": "> 4", "unit": "h"}, {"measurement": "half-life at 1 μM", "setting": "[10]; human, microsomes", "value": "> 4", "unit": "h"}, {"measurement": "microsomal CLint at 1 μM", "setting": "[10]; human, microsomes", "value": "< 9.6", "unit": "µL/min/mg"}, {"measurement": "NADPH-Free CLint", "setting": "[10]; human, microsomes, 1 μM", "value": "<9.6", "unit": "µL/min/mg"}, {"measurement": "NADPH-Free T1/2", "setting": "[10]; human, microsomes, 1 μM", "value": ">4", "unit": "h"}, {"measurement": "Mean Plasma Fraction Bound", "setting": "[10]; human, plasma", "value": 74.3, "unit": "%"}, {"measurement": "fraction unbound", "setting": "[10]; human, plasma", "value": 0.257}, {"measurement": "microsomal CLint at 1 μM", "setting": "[10]; rat, microsomes, NADPH-Dependent CLint", "value": 187, "unit": "µL/min/mg"}, {"measurement": "half-life at 1 μM", "setting": "[10]; rat, microsomes, NADPH-Dependent T1/2", "value": 0.207, "unit": "h"}, {"measurement": "microsomal CLint at 1 μM", "setting": "[10]; rat, microsomes, NADPH-Free CLint", "value": "< 9.6", "unit": "µL/min/mg"}, {"measurement": "half-life at 1 μM", "setting": "[10]; rat, microsomes, NADPH-Free T1/2", "value": "> 4", "unit": "h"}, {"measurement": "Oral availability", "setting": "[11]", "value": "about 100%"}, {"measurement": "bioavailability", "setting": "[11]", "value": "~98", "unit": "%"}, {"measurement": "AUC (0-t)", "setting": "[11]; iv", "value": "AUC (0-t) ng-min/g = 400605.0"}, {"measurement": "AUC(0-t)", "setting": "[11]; iv", "value": 330, "unit": "ng·h/mL"}, {"measurement": "Clearance (CL)", "setting": "[11]; iv", "value": "Clearance (CL) g/min/Kg = 0.006."}, {"measurement": "Kp at 0.5 h", "setting": "[11]; iv", "value": 8}, {"measurement": "Volume of distribution steady state", "setting": "[11]; iv", "value": "g/Kg = 2.9."}, {"measurement": "clearance", "setting": "[11]; iv", "value": 112, "unit": "mL/min/kg"}, {"measurement": "AUC", "setting": "[11]; iv, 2.5 mg/kg", "value": 373, "unit": "ng·h/mL"}, {"measurement": "MRT", "setting": "[11]; iv, 2.5 mg/kg, MRT", "value": 6.63, "unit": "h"}, {"measurement": "Cmax", "setting": "[11]; iv, Cmax", "value": 629, "unit": "ng/g"}, {"measurement": "Cmax", "setting": "[11]; iv, Cmax plasma", "value": 564, "unit": "ng/mL"}, {"measurement": "MRT", "setting": "[11]; iv, Mean residence time (MRT)", "value": 6.64, "unit": "h"}, {"measurement": "MRT", "setting": "[11]; iv, Mean residence time (MRT) area", "value": 8.33, "unit": "h"}, {"measurement": "AUC (0-t)", "setting": "[11]; po", "value": "AUC (0-t) ng-min/g = 793672.5"}, {"measurement": "AUC(0-t)", "setting": "[11]; po", "value": 1970, "unit": "ng·h/mL"}, {"measurement": "Clearance (CL)", "setting": "[11]; po", "value": "Clearance (CL) g/min/Kg = 0.087."}, {"measurement": "T1/2 elimination", "setting": "[11]; po", "value": "T1/2 elimination = 154.022 min."}, {"measurement": "clearance", "setting": "[11]; po", "value": 84, "unit": "mL/min/kg"}, {"measurement": "time of peak", "setting": "[11]; po", "value": 8, "unit": "h"}, {"measurement": "AUC", "setting": "[11]; po, 10 mg/kg", "value": 1970, "unit": "ng·h/mL"}, {"measurement": "MRT", "setting": "[11]; po, 10 mg/kg, MRT", "value": 21.7, "unit": "h"}, {"measurement": "Cmax", "setting": "[11]; po, Cmax", "value": 3250, "unit": "ng/g"}, {"measurement": "Cmax", "setting": "[11]; po, Cmax plasma", "value": 150, "unit": "ng/mL"}, {"measurement": "half-life", "setting": "[11]; po, T1/2 elimination", "value": 2.41, "unit": "h"}, {"measurement": "Tmax", "setting": "[11]; po, Tmax", "value": 6.33, "unit": "h"}, {"measurement": "Tmax", "setting": "[11]; po, Tmax oral", "value": 8, "unit": "h"}, {"measurement": "Kd", "setting": "[12]", "value": "~0.003", "unit": "µM"}, {"measurement": "Target 5-HT3", "setting": "[12]; target binding", "value": 5, "unit": "nM"}, {"measurement": "IC50", "setting": "[13]", "value": "> 30", "unit": "µM"}, {"measurement": "inhibition at 10 µM", "setting": "[13]; human", "value": 11.4, "unit": "%"}, {"measurement": "inhibition at 30 µM", "setting": "[13]; human", "value": 21.6, "unit": "%"}, {"measurement": "solubility", "setting": "[14]", "value": 80, "unit": "mM"}, {"measurement": "solubility", "setting": "[14]; water", "value": 85, "unit": "mM"}]}
